Where only a bound is given, the exact number is not on record here.

By IC50 is commonly meant the concentration needed to halve the response being measured.

In one assay the test system is HeLa. Description: Cell Titer Glo 2.0 relative cell viability, 72 h (Example 10). The format is cell-based. Particulars: Homo sapiens, HeLa cell line, read-out: Abs IC50. The protocol:
(§1) The present Example provides experimental evidence that cell lines predicted to be sensitive to a Chk1 inhibitor (e.g., prexasertib, are also sensitive to Wee1 inhibitors (e.g., adavosertib (AZD1775, MK1775) and azenosertib (Zn-C3)). Cell lines were treated with increasing doses of either prexasertib, adavosertib, or azenosertib, and relative cell viability against a DMSO control was assessed 72 h after drug treatment using Cell Titer Glo 2.0 (Promega) and a SpectraMax microplate reader. The results are shown in FIGS. 19A-19C. Error bars represent standard deviations from quadruplicate samples.
A general note: ATP-based viability assays read luminescence as a measure of living cells.

For the next assay, the system named is BxPC3. Described as above. The format is cell-based. Conditions: Homo sapiens, BXPC-3, BxPC3 cell line, read-out: Abs IC50. Here is the method: as §1
The next assay relates to OVCAR3. The description is as above. Type of assay: cell-based. Conditions: Homo sapiens, OVCAR-3, OVCAR3 cell line, read-out: Abs IC50. The protocol: as §1
Another assay deals with T47D. Described as above. The format is cell-based. Conditions: Homo sapiens, T47D cell line, read-out: Abs IC50. Here is the method: as §1
Another assay relates to A375. The description is as above. Type of assay: cell-based. Conditions: Homo sapiens, A-375, A375 cell line, read-out: Abs IC50. The protocol:
as §1

The next assay concerns PC3. The description is as above. The format is cell-based. Conditions: Homo sapiens, PC-3, PC3 cell line, read-out: Abs IC50. Here is the method: as §1
Another assay concerns A2780. The description is as above. The format is cell-based. Conditions: Homo sapiens, A2780 cell line, read-out: Abs IC50. Here is the method:
as §1

In assay [1] the test system is OVCAR3-P and OVCAR3-R cells. Description: Global pan-/phospho-proteomic analysis and western blot after gemcitabine (Example 12). Type of assay: cell-based, human. Conditions: gemcitabine 10 nM for 24 hours vs DMSO control. The protocol: To determine whether treatment with gemcitabine can alter the abundance of biomarkers associated with a Response-Predictive Signature, a global pan-proteomic and phosphor-proteomic analysis was performed to compare treatment with low dose gemcitabine (10 nM for 24 hours) to DMSO control in both OVCAR3-P and OVCAR3-R cells.

With `C=CCn1c(=O)c2cnc(Nc3ccc(N4CCN(C)CC4)cc3)nc2n1-c1cccc(C(C)(C)O)n1` [Adavosertib], the 50% inhibitory concentration (IC50) in the assay on HeLa is 328 nM; in the assay on BxPC3, 360 nM; in the assay with OVCAR3, 237 nM; in the assay with T47D, more than 10000 nM; in the assay with A375, 170 nM; in the assay with PC3, more than 10000 nM. For the same molecule, in the assay on A2780, the IC50 was determined as 653 nM.
For `C=CCn1c(=O)c2cnc(Nc3ccc(N4CCN(C)CC4)cc3)nc2n1-c1ccc2c(n1)[C@@](O)(CC)CC2` [Azenosertib], the IC50 in the assay on HeLa is 604 nM; in the assay with BxPC3, 448 nM; with OVCAR3, 233 nM; in the assay on T47D, more than 10000 nM; in the assay with A375, 239 nM; in the assay with PC3, more than 10000 nM. The IC50 in the assay on A2780 worked out at 900 nM.
On to `Nc1ccn([C@@H]2O[C@H](CO)[C@@H](O)C2(F)F)c(=O)n1` [gemcitabine, 2′,2′-difluoro 2′-deoxycytidine], for which, in assay [1], the “Ser296 phosphorylated Chk1 (BM1) abundance” value was “significant increase” and the “abundance of total cyclin E1 (BM3)” value is “significant increase”.

The values are drawn from US20260166029A1, “METHODS AND SYSTEMS FOR TREATING DISEASE USING AN ATR/CHK1 SIGNALING PATHWAY INHIBITOR” (Acrivon Therapeutics, Inc., priority 2022, published 2026).
